Test results: US6387930B1, “Piperidine derivatives useful as CCR5 antagonists” (Schering Corporation, priority 1999, dated 2002)

Target: T1, human CCR5 chemokine receptor (Homo sapiens, UniProt P51681)
T1 construct: expressed in transfected cells; host or cells: NIH 3T3 cells (mouse fibroblasts), membrane preparation
Test: CCR5 membrane binding assay (inhibition of RANTES binding)
Conditions: membranes from NIH 3T3 cells expressing human CCR5; 125I-RANTES
Procedure: CCR5 Membrane Binding Assay:
A high throughput screen utilizing a CCR5 membrane binding assay identifies inhibitors of RANTES binding. This assay utilizes membranes prepared from NIH 3T3 cells expressing the human CCR5 chemokine receptor which have the ability to bind to RANTES, a natural ligand for the receptor. Using a 96-well plate format, membrane preparations are incubated with ^125I-RANTES in the presence or absence of compound for one hour. Compounds are serially diluted over a wide range of 0.001 ug/ml to 1 ug/ml and tested in triplicates. Reaction cocktails are harvested through glass fiber filters, and washed thoroughly. Total counts for replicates are averaged and data reported as the concentration required to inhibit 50 percent of total ^125I-RANTES binding.

T1 sequence (P51681 whole entry): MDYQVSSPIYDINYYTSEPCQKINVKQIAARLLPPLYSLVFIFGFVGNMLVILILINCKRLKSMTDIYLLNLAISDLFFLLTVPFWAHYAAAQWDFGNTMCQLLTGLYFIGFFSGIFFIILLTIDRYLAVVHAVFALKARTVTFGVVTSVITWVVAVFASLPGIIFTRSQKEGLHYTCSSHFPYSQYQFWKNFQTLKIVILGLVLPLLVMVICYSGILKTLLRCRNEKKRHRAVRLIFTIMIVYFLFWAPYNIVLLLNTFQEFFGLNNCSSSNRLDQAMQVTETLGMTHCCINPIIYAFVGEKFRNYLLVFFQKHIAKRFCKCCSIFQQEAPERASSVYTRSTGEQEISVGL

| SMILES | Ki [nM] |
| --- | --- |
| CC1(N2CCC(Cc3ccc(Br)cc3)CC2)CCN(C(=O)c2cccc3ccccc23)CC1 [Example 9D] | 588 |
| CO/N=C(\c1ccc(Br)cc1)C1CCN(C2(C)CCN(C(=O)c3c(C)ncnc3C)CC2)CC1 [Example 5L] | 7.9 |
| Cc1ccnc(C)c1C(=O)N1CCC(C)(N2CCC(C(Oc3ccccn3)c3ccc(Br)cc3)CC2)CC1 (single isomer, unassigned) [Example 4B] | 0.5 |
| Cc1cccc(C)c1C(=O)N1CCC(C)(N2CCC(C(Oc3nccs3)c3ccc(Br)cc3)CC2)CC1 (stereo not shown) [Example 1J] | 1 |
| CCO/N=C(\c1ccc(C(F)(F)F)cc1)C1CCN(C2(C)CCN(C(=O)c3c(Cl)cncc3Cl)CC2)CC1 [Example 6V] | 0.8 |
| Cc1ccnc(C)c1C(=O)N1CCC(C)(N2CCC(C(Oc3cnccn3)c3ccc(S(C)(=O)=O)cc3)CC2)CC1 (stereo not shown) [Example 2S] | 17.9 |
| Cc1ccnc(C)c1C(=O)N1CCC(C)(N2CCC(C(Oc3ccccn3)c3ccc(C(F)(F)F)cc3)CC2)CC1 (stereo not shown) [Example 2G] | 1.8 |
| CCO/N=C(\c1ccc(Br)cc1)C1CCN(C2(C)CCN(C(=O)c3c(C)ncnc3C)CC2)CC1 [Example 5N] | 1.7 |
| CCO/N=C(\c1ccc(Br)cc1)C1CCN(C2(C)CCN(C(=O)c3c(C)cc(-c4ccncc4)cc3C)CC2)CC1 [Example 5AB] | 0.1 |
| CC1(N2CCC(C(Oc3ccccn3)c3ccc(C(F)(F)F)cc3)CC2)CCN(C(=O)c2c(Cl)cncc2Cl)CC1 (stereo not shown) [Example 2JJ] | 0.58 |
